Columns and labels:
[1] = system: asexual blood stage and liver stage parasites; design: method as in PMID 30664827; conditions: cited from earlier work
[2] = Photo-uncaging efficiency (HPLC after irradiation at 365 nm); format: physicochemical; conditions: 10 min
Method: Photolysis (photo-uncaging) of photocaged HDACi prodrugs was performed at room temperature using a UVP CL-1000 Crosslinker (Analytik Jena GmbH, Jena, Germany) equipped with five UV-A tubes (F8T5/BL368; λmax = 365 nm; Analytik Jena GmbH, Jena, Germany). Hereafter, this entire experimental set-up will be referred to as the “UV reactor”.
For the photo-uncaging efficiency testing, 10 µL of a 1.0 mM DMSO solution of the respective compound was irradiated for 10 min using the UV reactor described above. Subsequently, 90 µL acetonitrile was added, and the samples were analyzed via HPLC. The amount of photo-cleaved HDACi was determined by comparison with a five-point calibration curve of the respective parent inhibitor, using HPLC/UV detection at an appropriate wavelength (area under the curve; area mAu*min).
2. Photouncaging Experiments
Photolysis (photouncaging) of photocaged HDACi prodrugs was performed at room temperature using an UVP CL-1000 Crosslinker (Analytik Jena GmbH, Jena, Germany) equipped with five UV-A tubes (F8T5/BL368; λmax = 365 nm; Analytik Jena GmbH, Jena, Germany). Hereafter, this entire experimental set-up will be referred to as the "UV-reactor".
For the deprotection experiments 10 µL of a 1.0 mM DMSO-solution of the respective compound were irradiated for 10 min using the UV-reactor described above. Subsequently, 90 µL acetonitrile were added and the samples were analyzed via HPLC. The amount of photo-cleaved HDACi was determined by comparison with a five-point calibration curve of the respective parent inhibitor using HPLC/UV detection at an appropriate wavelength (area under the curve; area mAu*min).
Figure S5. Calibration curve of DDK-137 (I).

yield of photo-released parent inhibitor ([2]; DMSO, HPLC with calibration curve) [%]	concentration of photo-released parent inhibitor after irradiation ([2]; initial concentration 100 µM) [µM]	SMILES	antiplasmodial activity [1]
		CN(C)c1ccc(C(=O)N(CC(=O)NCc2ccccc2)Cc2ccc(C(=O)NO)cc2)cc1 [I, N-[2-(benzylamino)-2-oxoethyl]-4-(dimethylamino)-N-[4-(hydroxycarbamoyl)-benzyl]-benzamide]	potent antiplasmodial activity
82	81.5	COc1cc(CONC(=O)c2ccc(CN(CC(=O)NCc3ccccc3)C(=O)c3ccc(N(C)C)cc3)cc2)c([N+](=O)[O-])cc1OC [pc-I, N-[2-(Benzylamino)-2-oxoethyl]-N-(4-{[(4,5-dimethoxy-2-nitrobenzyl)oxy]carbamoyl}benzyl)-4-(dimethylamino)benzamide]	
